Source: patent publication US11504320B2, “Use of naturally glycosylated polyphenols as protective agents against the effects of ultraviolet irradiation” (MEDENA AG, priority 2017, dated 2022)
Entries after “also recorded” stand apart in the source; their conditions may differ. Read-outs that look alike come from different tables or passages of the source. Marks after values point to notes of the source that are not given here.

Columns and labels:
[1] = Photo stability: effect of solar simulating UV irradiation on SPF values of sunscreens; assay type: physicochemical; conditions: for SPF after UV irradiation: fifty μM solution
Experimental: Fifty μM sunscreen solutions placed in 3.5 cm Petri dishes were irradiated by 66% UVA+33% UVB for 1, 3, 20, and 40 min. Final doses of UV irradiation were 0.15, 0.45, 3.0, and 6.0 J/cm^2, respectively. * p<0.05 vs background SPF; ** p<0.01 vs background SPF.

[2] = Broad band UVB and UVA absorption (SPF and UVA/UVB ratio) of sunscreens; assay type: physicochemical; conditions: for SPF1 (sun protection factor corresponding to UVB absorption): 250 μM sunscreen; for SPF2 (sun protection factor corresponding to UVB absorption): 10% (weight %) sunscreen
Experimental: For the invention as claimed data are presented in support of the surprising finding that definite naturally glycosylated polyphenols provide optimal photo-protection due to several reasons. They effectively absorb broad-band range of UV light in both spectrum regions: UVA and UVB. […] The efficacy of absorption is expressed as SPF (sun protection factor) for UVB range representing an integral of absorption within the whole UVB spectrum. The efficacy of absorption is also calculated as the UVA/UVB ratio showing that the ratio should be greater than 0.5 up to 1.2 in order to provide proper UVA protection.

skin cells = assay: Photo-chemo-toxicity (photo-chemo damage to skin cells); assay type: cell-based
Text: This is true for quercetin and its alpha-glycosylated derivative, resveratrol, chalcone and many others. The phenomenon of photo-chemo-toxicity depends of UV-induced destruction of the parent molecule and cytotoxicity exerted by the formed metabolites.

[3] = UV (66% UVA + 33% UVB) 0 J/cm^2
[4] = UV (66% UVA + 33% UVB) 0.15 J/cm^2 (1 min)
[5] = UV (66% UVA + 33% UVB) 0.45 J/cm^2 (3 min)
[6] = UV (66% UVA + 33% UVB) 3.0 J/cm^2 (20 min)
[7] = UV (66% UVA + 33% UVB) 6.0 J/cm^2 (40 min)
[8] = solar simulated UVB+UVA irradiation

Row | SPF after UV irradiation [1, 3] | SPF after UV irradiation [1, 6] | SPF after UV irradiation [1, 7] | Photo-stability on exposure to UV irradiation (in words) [1, 8] | UVA/UVB (ratio of UVA to UVB absorption) [2] | SPF1 (sun protection factor corresponding to UVB absorption) [2] | SPF2 (sun protection factor corresponding to UVB absorption) [2] | Molecule | other results
1 | 3.68 ± 0.15 | 3.69 ± 0.12 | 3.79 ± 0.12 | easily destructed | 1.14 | 3.65 ± 0.12 | 5.41 ± 0.12 | O=c1cc(-c2ccccc2)oc2cc(O)c(O)c(O)c12 [Baicalein] | SPF after UV irradiation [1, 4]: 3.63 ± 0.12; SPF after UV irradiation [1, 5]: 3.62 ± 0.13
2 | – | – | – | – | – | – | – | O=C(/C=C/c1ccccc1)c1ccccc1 [Ghalcone] | Photo-chemo-toxicity (in words) (skin cells; skin cells, UV): photo-chemo-toxicity
3 | – | – | – | – | 1.70 | 2.63 ± 0.08 | 3.48 ± 0.12 | O=c1c(O)c(-c2ccc(O)cc2O)oc2cc(O)cc(O)c12 [Morin] | –
4 | – | – | – | photo-unstable | – | – | – | O=c1c(O)c(-c2ccc(O)c(O)c2)oc2cc(O)cc(O)c12 [Quercetin] | Photo-stability on exposure to UV irradiation (in words) ([1]; solar simulated UVB+UVA irradiation, listed as quercetin): unstable to exposure to UV irradiation; also recorded: easily destructed; Photo-chemo-toxicity (in words) (skin cells): photo-chemo-toxicity
5 | 6.38 ± 0.12 | 6.38 ± 0.12 | 6.39 ± 0.12 | – | 0.46 | 6.38 ± 0.12 | 8.39 ± 0.14 | O=C1c2c(O)cc(O)cc2O[C@H](c2ccc(O)c(O)c2)[C@H]1O [Taxifolin] | –
6 | 8.25 ± 0.09 | 8.23 ± 0.12 | 8.26 ± 0.10 | – | 0.59 | 8.25 ± 0.09 | 5.29 ± 0.09 | C[C@@H]1O[C@@H](O[C@@H]2[C@@H](O)[C@H](OCCc3ccc(O)c(O)c3)O[C@H](CO)[C@H]2OC(=O)/C=C/c2ccc(O)c(O)c2)[C@H](O)[C@H](O)[C@H]1O [Verbascoside] | –
7 | – | – | – | unstable to exposure to UV irradiation | – | – | – | O=c1c(O)c(-c2ccc(O)cc2)oc2cc(O)cc(O)c12 [kaempferol] | Photo-stability on exposure to UV irradiation (in words) ([1]; solar simulated UVB+UVA irradiation, listed as kaempherol): easily destructed
8 | – | – | – | easily destructed | – | – | – | O=c1c(O)c(-c2cc(O)c(O)c(O)c2)oc2cc(O)cc(O)c12 [myricetin] | –
9 | 7.34 ± 0.18 | 3.61 ± 0.13 | 3.74 ± 0.17 | – | – | – | – | COc1cc(/C=C/C(=O)O)ccc1O [trans-Ferulic acid] | SPF after UV irradiation [1, 4]: 5.34 ± 0.09**; SPF after UV irradiation [1, 5]: 3.91 ± 0.11
10 | – | – | – | – | 0.51 | 11.83 ± 0.12 | 6.79 ± 0.12 | Leontopodic acids | –
11 | – | – | – | – | – | – | – | alpha-glycosyl quercetin [alpha-glycosylated derivative] | Photo-stability on exposure to UV irradiation (in words) [1]: photo-unstable; Photo-chemo-toxicity (in words) (skin cells): photo-chemo-toxicity

Row | Molecule | SPF after UV irradiation [1, 3] | SPF after UV irradiation [1, 6] | SPF after UV irradiation [1, 7] | Photo-stability on exposure to UV irradiation (in words) [1, 8] | UVA/UVB (ratio of UVA to UVB absorption) [2] | SPF1 (sun protection factor corresponding to UVB absorption) [2] | SPF2 (sun protection factor corresponding to UVB absorption) [2] | other results
12 | Oc1ccc(C=Cc2cc(O)cc(O)c2)cc1 [Resveratrol] | 11.98 ± 0.11 | 4.93 ± 0.16 | 4.63 ± 0.10 | unstable to exposure to UV irradiation; also recorded: easily destructed | – | – | – | SPF after UV irradiation [1, 4]: 4.81 ± 0.20**; SPF after UV irradiation [1, 5]: 4.25 ± 0.20; Photo-chemo-toxicity (in words) (skin cells): photo-chemo-toxicity
